From US12421254B2, “KRAS modulators and uses thereof” (Quanta Therapeutics, Inc., priority 2023, dated 2025)

Tests used:
phospho-ERK in AGS cells = assay: pERK In Cell Western (ICW) assay (Method B), AGS; format: cell-based; details: Homo sapiens, Table 2, 3 hours
Procedure: pERK ICW is a high throughput screening assay to evaluate the cellular potency of mutant KRAS small molecule inhibitors. KRAS mutant cell lines AGS, GP2D (KRAS-G12D) as well as SW620 (KRAS-G12V) were purchased from ATCC and maintained respectively in RPMI/DMEM/RPMI medium supplemented with 10% fetal bovine serum.
Cells grown in exponential phase were trypsinized, resuspended in fresh media, and viable cells were counted using a cell counter with Trypan Blue (BioRad TC20). Cells were seeded into 384-well plate (Greiner 781091) at density of 5,000 cells/well for AGS and 10,000 cells/well for GP2D/SW620 and allowed to grow overnight in a 37° C. CO2 incubator. The next day, compounds were dispensed into wells with a ½ log, 9-point serial dilution using a Tecan D300e dispenser and incubated for 3 hours in a 37° C. CO2 incubator. Cells were then fixed with paraformaldehyde (Electron Microscopy Sciences, 15710, 4% final concentration) for 30 min, permeabilized with wash buffer (1×PBS+0.1% Triton X-100) for 30 min and blocked with Odyssey blocking buffer (Li—COR 927-70001) for 1 hour, all at room temperature (RT). Phospho-ERK antibody (CST 4370L) was diluted 1:500 in Odyssey T20 (PBS) antibody diluent (Li—COR 927-75001) and incubated with cells overnight at 4° C. The next day, plates were washed 5× with wash buffer, incubated with IRDye 800 CW, Goat anti-Rabbit secondary antibody (Li—COR 926-32211, 1:800) and DRAQ5 (CST 4084L, 1:5,000) diluted in Odyssey T20 (PBS) antibody diluent for 1 hour, washed 5×, and imaged on an Odyssey CLx imaging system.
For data analysis, signal intensities from 800 (phosphor-ERK) and 700 (DRAQ5) channels were extracted, and phospho-ERK signals were normalized to DRAQ5 signals for each well and percent of blank control values were computed. Data were then imported into Graphpad Prism to compute half-maximal inhibitory concentrations (IC50) using a 4-parameter variable slope model. Z-factor for each plate was computed from signals derived from wells treated with either DMSO or 5 μM of control compound. AGS pERK ICW (Method B) IC50 (uM) values of selected compounds are depicted in Table 2 with compounds having a value ≥0.001 uM to 0.01 uM as ++++; ≥0.01 uM to 0.1 uM as +++; ≥0.1 uM to 1 uM as ++; ≥1 uM to 10 uM as + and ≥10 uM as NA.

KRAS G12D/RAF1 = target: T1, KRAS G12D/RAF1 (Homo sapiens, UniProt P01116, G12D); assay: Protein-protein interaction (PPI) HTRF assay KRAS G12D/RAF1; format: binding; details: Table 2
T1 construct: KRAS (1-169) proteins were expressed in BL21 (DE3)-CodonPlus E. coli; His6-MBP (N, cleaved yes)
Procedure: (§1) When RAS proteins are in the active GTP-bound conformation, they bind the effector protein RAF1 at the N-terminus Ras-binding domain (RBD, residues 52-131) (Tran, et al., 2021). Homogenous time resolved fluorescence (HTRF) was used to monitor the interaction between wt or mutant KRAS and RAF1 or wt NRAS and RAF1. Compounds were assayed in the presence of KRAS G12D/V and RAF1 versus wt KRAS to assess activity against mutant and w.t. KRAS. Similarly, compounds were then assayed in the presence of w.t. NRAS and RAF1 to assess RAS isoform selectivity. In all assay formats, His-tagged RAF1 protein was incubated with the HTRF donor, anti-6His Tb Cryptate gold (Cisbio 61DB10RDF), and biotinylated RAS proteins were incubated with the HTRF acceptor, streptavidin-d2 (CisBio 610SADLA). The intensity of the fluorescence signal emitted is proportional to binding between the two proteins. The donor solution was prepared by mixing 16 nM His-tagged RAF1 in protein dilution buffer with 1:100 anti-6His Tb cryptate in PPI-Terbium detection buffer. 16 nM biotinylated RAS protein was diluted into protein dilution buffer (50 mM Tris-HCl pH 7.5, 150 mM NaCl, 0.1 mM MgCl2, 1 mM TCEP, 0.005% Tween20) and mixed with 1:2000 Streptavidin-d2 diluted in PPI-Terbium detection buffer (CisBio 61DB10RDF). 50× compound in DMSO was mixed with 16 nM KRAS-acceptor solution and incubated for 30 minutes at room temperature. After compound pre-incubation with KRAS, the RAF1 donor solution was added to the KRAS-acceptor solution and incubated for 1 hour at room temperature. The fluorescence signal emitted was monitored at 665 nm and 615 nm using an Envision multimode plate reader. The HTRF ratio (665/615) was calculated and normalized to 0% inhibition in the absence of compound and 100% inhibition in the presence of untagged RAF1 protein. PPI KRAS G12D/RAF1, KRAS G12V/RAF1, w.t. KRAS/RAF1 and NRAS/RAF1 IC50 (uM) values of selected compounds are depicted in Table 3 and Table 4 with compounds having a value <0.1 uM as ++++; ≥0.1 uM to 1 uM as +++; ≥1 uM to 10 uM as ++; ≥10 uM to 100 uM as +; and ≥100 uM as NA.

[1] = system: phospho-ERK in SW620 (KRAS-G12V) cells; assay: pERK In Cell Western (ICW) assay (Method B), SW620; format: cell-based; details: Homo sapiens, SW-620, 3 h, Table 4
Summary of the method: (§2)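 In-cell western read-out: phospho-ERK (800 nm) normalized to DRAQ5 (700 nm) per well, expressed as percent of blank control, IC50 from 4-parameter variable-slope fit. Compounds were applied as ½-log 9-point series for 3 h at 37 °C to cells plated the previous day.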

w.t. KRAS/RAF1 = target: T2, w.t. KRAS/RAF1 (Homo sapiens, UniProt P01116); assay: Protein-protein interaction (PPI) HTRF assay w.t. KRAS/RAF1; format: binding; details: Table 3; wt KRAS/RAF1
T2 construct: KRAS (1-169) proteins were expressed in BL21 (DE3)-CodonPlus E. coli; His6-MBP (N, cleaved yes)
Procedure: as §1

[2] = system: phospho-ERK in GP2D (KRAS-G12D) cells; assay: pERK In Cell Western (ICW) assay (Method B), GP2D; format: cell-based; details: GP2d, 3 h, Table 4
Summary of the method: as §2

NRAS/RAF1 = target: T3, NRAS/RAF1 (Homo sapiens, UniProt P01111); assay: Protein-protein interaction (PPI) HTRF assay w.t. NRAS/RAF1; format: binding; details: Table 3; wt NRAS/RAF1
T3 construct: (1-169); His6-SUMO (N, cleaved yes)
Procedure: as §1

T3 sequence (P01111 with tags, fused parts or gaps): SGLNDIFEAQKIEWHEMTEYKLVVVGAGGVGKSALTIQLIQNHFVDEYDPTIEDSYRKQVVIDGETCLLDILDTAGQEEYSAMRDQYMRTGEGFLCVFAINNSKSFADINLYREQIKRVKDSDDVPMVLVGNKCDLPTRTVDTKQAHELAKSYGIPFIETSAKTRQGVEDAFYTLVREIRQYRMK
T2 sequence (P01116 with tags, fused parts or gaps isoform P01116-2): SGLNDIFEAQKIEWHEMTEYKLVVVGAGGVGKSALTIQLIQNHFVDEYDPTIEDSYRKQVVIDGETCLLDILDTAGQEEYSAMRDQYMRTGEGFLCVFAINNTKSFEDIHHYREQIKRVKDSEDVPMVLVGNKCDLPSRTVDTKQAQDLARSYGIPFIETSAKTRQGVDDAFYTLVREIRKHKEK
T1 sequence (P01116 with tags, fused parts or gaps isoform P01116-2 G12D): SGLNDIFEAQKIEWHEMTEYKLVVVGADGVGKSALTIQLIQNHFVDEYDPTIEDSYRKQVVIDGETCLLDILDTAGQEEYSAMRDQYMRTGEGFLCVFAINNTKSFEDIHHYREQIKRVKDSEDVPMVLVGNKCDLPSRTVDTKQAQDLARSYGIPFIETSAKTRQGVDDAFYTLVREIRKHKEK

Row | Compound | IC50 (phospho-ERK in AGS cells) [µM] | IC50 (KRAS G12D/RAF1) [µM] | IC50 [1] [nM] | IC50 (w.t. KRAS/RAF1) [µM] | IC50 [2] [nM] | IC50 (NRAS/RAF1) [µM]
1 | N#Cc1c(N)sc2c1C1(CC2)CN(c2nc(OC[C@@]34CCCN3C[C@H](F)C4)nc(N3CCCC(C#N)C3)n2)C1 (stereo partly drawn) [Compound 13, 2-amino-1′-[4-(3-cyano-1-piperidyl)-6-[[(2R,8S)-2-fluoro-1,2,3,5,6,7-hexahydropyrrolizin-8-yl]methoxy]-1,3,5-triazin-2-yl]spiro[5,6-dihydrocyclopenta[b]thiophene-4,3′-azetidine]-3-carbonitrile] | 1 to 10 | 1 to 10 | 100 to 1000 | 1 to 10 | 100 to 1000 | 
2 | N#Cc1c(N)sc2c1C1(CC2)CN(c2nc(OCC3(CN4CCOCC4)CC3)nc(N3CCCC4(C3)NC(=O)NC4=O)n2)C1 (stereo not shown) [Compound 7, 2-amino-1′-[4-(2,4-dioxo-1,3,9-triazaspiro[4.5]decan-9-yl)-6-[[1-(morpholinomethyl)cyclopropyl]methoxy]-1,3,5-triazin-2-yl]spiro[5,6-dihydrocyclopenta[b]thiophene-4,3′-azetidine]-3-carbonitrile] |  | 0.1 to 1 | 1000 to 20000 | 0.1 to 1 | 1000 to 20000 | > 100
3 | N#Cc1c(N)sc2c1C1(CCC2)CN(c2nc(OCC3(CN4CCOCC4)CC3)nc(N3C[C@H]4CC[C@@H](C3)N4)n2)C1 [Compound 3, 2-amino-1′-[4-[(1R,5S)-3,8-diazabicyclo[3.2.1]octan-3-yl]-6-[[1-(morpholinomethyl)cyclopropyl]methoxy]-1,3,5-triazin-2-yl]spiro[6,7-dihydro-5H-benzothiophene-4,3′-azetidine]-3-carbonitrile] | 0.1 to 1 | 1 to 10 |  | 1 to 10 | 10 to 100 | > 100
4 | N#Cc1c(N)sc2c1C1(CC2)CN(c2nc(OCC34CCCN3CC(F)C4)nc(N3CC4CCC(C3)N4)n2)C1 [Compound 1, 2-amino-1′-[4-(3,8-diazabicyclo[3.2.1]octan-3-yl)-6-[[(2R,8S)-2-fluoro-1,2,3,5,6,7-hexahydropyrrolizin-8-yl]methoxy]-1,3,5-triazin-2-yl]spiro[5,6-dihydrocyclopenta[b]thiophene-4,3′-azetidine]-3-carbonitrile] | 0.1 to 1 | 0.1 to 1 |  | 1 to 10 | 10 to 100 | > 100
5 | C[C@@]1(O)CCCN(c2nc(OC[C@@]34CCCN3C[C@H](F)C4)nc(N3CC4(CCc5sc(N)c(C#N)c54)C3)n2)C1 [Compound 10, 2-amino-1′-[4-[[(2R,8S)-2-fluoro-1,2,3,5,6,7-hexahydropyrrolizin-8-yl]methoxy]-6-[(3R)-3-hydroxy-3-methyl-1-piperidyl]-1,3,5-triazin-2-yl]spiro[5,6-dihydrocyclopenta[b]thiophene-4,3′-azetidine]-3-carbonitrile] | 0.1 to 1 | 1 to 10 | 100 to 1000 | 1 to 10 | 10 to 100 | > 100
6 | N#Cc1c(N)sc2c1C1(CC2)CN(c2nc(OCC3(CN4CCOCC4)CC3)nc(N3C[C@H]4CC[C@@H](C3)N4)n2)C1 [Compound 2, 2-amino-1′-[4-[[1-(morpholinomethyl)cyclopropyl]methoxy]-6-[(1R,5S)-3,8-diazabicyclo[3.2.1]octan-3-yl]-1,3,5-triazin-2-yl]spiro[5,6-dihydrocyclopenta[b]thiophene-4,3′-azetidine]-3-carbonitrile] | 0.1 to 1 | 1 to 10 |  | 1 to 10 | 10 to 100 | > 100
